# Experimental data taken from US20250375417A1, “OREXIN RECEPTOR 2 (OX2R) AGONIST FOR USE IN NARCOLEPSY TYPE 1 (NT1)” (TAKEDA PHARMACEUTICAL COMPANY LIMITED, priority 2024, published 2025).
# Tests used:
# participants with NT1 = assay: Safety (TEAEs), LTE study interim analysis, NT1 participants; format: in vivo, human; conditions: for TEAE insomnia, frequency / TEAE micturition frequency, frequency / TEAE micturition urgency, frequency: LTE
# From the text: This was a phase 2/3 multicenter, dose-blind, long-term extension (LTE) study of Compound A. Participants from controlled studies conducted with Compound A, who had up to a 3-month dosing gap between their parent study and the screening period for this study, were eligible to participate in this study.
# Day 1 dosing for all participants occurred in-clinic with PK and safety assessments. Participants who were undergoing nocturnal polysomnography (nPSG) and an MWT during the final assessment of their Compound A parent study had the option of staying overnight in the clinic on Day −1 so they were already in the clinic for Day 1 the following day. Clinic visits after Week 4 were scheduled monthly up to Week 12, then approximately every 3 months until the end of Year 2 (Weeks 2, 4, 8, 12, 26, 38, 52, 64, 78, 90, and 104). […] Participants had either an in-clinic or home health follow up visit 4 weeks after their last dose. All other visits could be conducted through home health. Laboratory tests for safety were obtained biweekly up until Week 12, followed by monthly until Year 1, and then approximately every 3 months thereafter. Monthly phone calls were conducted to collect adverse event (AE) and concomitant medication information in Year 2.
# In this dose-blind study, all participants received Compound A. Participants entering the study with or without a dosing gap from a parent Compound A study remained on the same indication-specific dose of Compound A assigned to them in their parent study. Participants randomized to placebo or comparator in their parent study were randomized to one of the indication-specific dose regimens of Compound A available in this study. The investigator could request a change to either a higher or lower dose level of Compound A to be dispensed at Week 8 in the LTE treatment period. Subsequently, if the participant wished to return to their original LTE dose, this could be implemented at Week 12 in the LTE. No further dose adjustments were allowed for the duration of the study, except on a case by case basis as approved by the sponsor. The dose never exceeded the maximum designated dose level in the study. For a participant with NT1, if the next highest dose was the 7 mg total daily dose, the participant was randomized to 1 of those 2 dose regimens (i.e., 2 mg followed by 5 mg, or 7 mg once daily).
# Standard safety endpoints (e.g., TEAEs, physical examination findings, vital signs, 12-lead ECG measures, clinical laboratory results) for early clinical investigation were included. Further, because cardiovascular effects had been noted in nonclinical models with Compound A and OX2R agonists in general, and these effects are thought to be on-target effects, close monitoring of cardiovascular parameters, including time-matched BP measurements before and after dosing to detect any changes and potential tolerance in BP after the administration of repeat doses to participants with NT1 or NT2 were included.
# For participants with NT1: • Dose Regimen 1: 0.5 mg twice daily, approximately 3 hours apart; • Dose Regimen 2: 2 mg followed by 2 mg, approximately 3 hours apart; • Dose Regimen 3: 2 mg followed by 5 mg, approximately 3 hours apart; * • Dose Regimen 4: 7 mg once daily.*
# Participants completing either Example 1 or Example 2 with ≤3 months between parent study-end and LTE screening could enroll. Primary endpoint is the occurrence of treatment-emergent adverse events (TEAEs); secondary endpoints are change from baseline (parent study) in sleep onset latency on the Maintenance of Wakefulness Test (SOL-MWT), Epworth Sleepiness Scale (ESS) score, and weekly cataplexy rate (WCR). Participants with NT1 receive oral Compound A 0.5 mg twice 3 hours apart, 2 mg twice 3 hours apart, 2 mg then 5 mg 3 hours apart, or 7 mg once daily. Dose adjustments are allowed at specific timepoints (8 weeks and 12 weeks of the study and at other weeks on a sponsor-approved case-by-case basis). TEAEs are summarized under the dose at TEAE onset.
# participants with NT2 = assay: MWT sleep onset latency, Phase 2 NT2 trial (Example 2); format: in vivo, human; conditions: not statistically significant (p>0.4)
# Experimental: In some aspects of the methods described herein, the subject experiences a higher mean sleep latency (also referred to as sleep onset latency or SOL) from the Maintenance of Wakefulness Test (MWT) after a treatment period compared to an untreated subject. The MWT is a validated, objective measure that evaluates a person's ability to remain awake under soporific conditions for a defined period of time. Because there is no biological measure of wakefulness, wakefulness is measured indirectly by the inability or delayed tendency to fall asleep. This tendency to fall asleep is measured via electroencephalography-derived sleep latency in the MWT. One MWT, that includes four 40-minute wake trials, is done on each day specified in the Schedule of Activities of the trial. Sleep latency in each wake trial is recorded. Participants are required to stay awake in between the 4 MWT wake trials.
# During each MWT wake trial, participants are instructed to sit in a bed or reclining chair and remain awake for as long as possible in a dimly lit room. Wake trials are ended after 40 minutes if no sleep occurs. If no sleep has been observed according to these rules, then the latency is defined as 40 minutes.
# Randomization was stratified by region. Starting on the morning of Day 1, the study drug was administered at approximately the same time each day for 8 weeks. […]
# [1] = Clinical studies of Compound A: drug-induced liver injury; format: in vivo
# From the text: Liver function test (LFTs) (alanine aminotransferase [ALT], aspartate aminotransferase [AST], γ-glutamyl transferase [GGT], and total bilirubin) were closely monitored in this study. Stopping criteria for individual participants and the overall study, based on abnormal LFTs were established.
# [2] = 0.5 mg/0.5 mg (dose at TEAE onset)
structure (smiles),measurement,setting,value
"CCS(=O)(=O)N[C@@H]1[C@H](Cc2cccc(-c3cc(F)cc(F)c3)c2F)N(C(=O)C(C)(C)O)CC1(F)F [Compound A, N-{(2S,3R)-4,4-difluoro-1-(2-hydroxy-2-methylpropanoyl)-2-[(2,3′,5′-trifluoro[1,1′-biphenyl]-3-yl)methyl]pyrrolidin-3-yl}ethanesulfonamide]",Hepatotoxicity or visual disturbances,participants with NT1; LTE interim,No cases of hepatotoxicity or visual disturbances were reported
same,"Participants with severe drug-related TEAEs (insomnia, cataplexy)",participants with NT1; LTE interim (N=104),Two
same,Participants discontinued due to TEAEs,"participants with NT1; LTE interim (N=104), 3 unrelated to Compound A",6
same,Participants who experienced a TEAE,"participants with NT1; LTE interim analysis (N=104), all doses",54.8%
same,"TEAE insomnia, frequency",participants with NT1; [2],7.1%
same,"TEAE micturition frequency, frequency",participants with NT1; [2],10.7%
same,"TEAE micturition urgency, frequency",participants with NT1; [2],10.7%
same,"TEAE insomnia, frequency",participants with NT1; 2 mg/2 mg (dose at TEAE onset),10.9%
same,"TEAE micturition frequency, frequency",participants with NT1; 2 mg/2 mg (dose at TEAE onset),4.3%
same,"TEAE micturition urgency, frequency",participants with NT1; 2 mg/2 mg (dose at TEAE onset),2.2%
same,"TEAE insomnia, frequency",participants with NT1; 2 mg/5 mg (dose at TEAE onset),10.8%
same,"TEAE micturition frequency, frequency",participants with NT1; 2 mg/5 mg (dose at TEAE onset),8.1%
same,"TEAE micturition urgency, frequency",participants with NT1; 2 mg/5 mg (dose at TEAE onset),2.7%
same,"TEAE insomnia, frequency",participants with NT1; 7 mg (dose at TEAE onset),7.9%
same,"TEAE micturition frequency, frequency",participants with NT1; 7 mg (dose at TEAE onset),7.9%
same,"TEAE micturition urgency, frequency",participants with NT1; 7 mg (dose at TEAE onset),10.5%
same,Estimated mean change from baseline to Week 8 in SOL-MWT versus placebo,participants with NT2; 2 mg/2 mg,-0.24 min
same,Estimated mean change from baseline to Week 8 in SOL-MWT versus placebo,participants with NT2; 2 mg/5 mg,2.4 min
same,Drug-induced liver injury,[1],No cases of drug-induced liver injury have been reported
